Patent US20230192700A1, “PYRAZOLOPYRAZINES ACTING ON CANCERS VIA INHIBITION OF CDK12” (Bayer Aktiengesellschaft, priority 2020, published 2023)

Experiments:
CDK9/CyclinT1 = molecular target: T1, CDK9/CyclinT1 (Homo sapiens, UniProt P50750); assay: CDK9/CycT1 high ATP kinase assay (TR-FRET); format: biochemical; settings: 2 mM ATP (high ATP); median; read-out: CDK9/CyclinT1, 2 mM ATP (high ATP) IC50 - [mol/l] (median)
T1 construct: Recombinant full-length His-tagged human CDK9 and CycT1; His-tag; purchased Life Technologies PV4131; host or cells: insect cells
Experimental: 2.5 CDK9/CycT1 High ATP Kinase Assay
CDK9/CycT1 -inhibitory activity of compounds of the present invention at a high ATP concentration after preincubation of enzyme and test compounds was quantified employing the CDK9/CycT1 TR-FRET assay as described in the following paragraphs.
Recombinant full-length His-tagged human CDK9 and CycT1, expressed in insect cells and purified by Ni-NTA affinity chromatography, were purchased from Life Technologies (Cat. No PV4131). As substrate for the kinase reaction biotinylated peptide biotin-Ttds-YISPLKSPYKISEG (C-terminus in amide form) was used which can be purchased e.g. form the company JERINI peptide technologies (Berlin, Germany).
For the assay 50 nanoL of a 100 fold concentrated solution of the test compound in DMSO was pipetted into either a black low volume 384 well microtiter plate or a black 1536 well microtiter plate (both Greiner Bio-One, Frickenhausen, Germany), 2 microL of a solution of CDK9/CycT1 in aqueous assay buffer [50 millimol/L Tris/HCl pH 8.0, 10 millimol/L MgCl2, 1.0 millimol/L dithiothreitol, 0.1 millimol/L sodium ortho-vanadate, 0.01% (v/v) Nonidet-P40 (Sigma)] were added and the mixture was incubated for 15 min at 22° C. to allow pre-binding of the test compounds to the enzyme before the start of the kinase reaction. Then the kinase reaction was started by the addition of 3 microL of a solution of adenosine-tri-phosphate (ATP, 3.3 millimol/L=>final conc. in the 5 microL assay volume is 2 millimol/L) and substrate (1.25 micromol/L =>final conc. in the 5 microL assay volume is 0.75 micromol/L) in assay buffer and the resulting mixture was incubated for a reaction time of 25 min at 22° C. The concentration of CDK9/CycT1 was adjusted depending of the activity of the enzyme lot and was chosen appropriate to have the assay in the linear range, typical concentrations were in the range of 0.5 microg/mL. The reaction was stopped by the addition of 3 microL of a solution of TR-FRET detection reagents (0.33 micromol/L streptavidine-XL665 [Cisbio Bioassays, Codolet, France] and 1.67 nanomol/L anti-RB(pSer807/pSer811)-antibody from BD Pharmingen [#558389] and 2 nanomol/L LANCE EU-W1024 labeled anti-mouse IgG antibody [Perkin-Elmer, product no. AD0077]) in an aqueous EDTA-solution (167 millimol/L EDTA, 0.2% (w/v) bovine serum albumin in 100 millimol/L HEPES pH 7.5).
The resulting mixture was incubated 1 h at 22° C. to allow the formation of complex between the phosphorylated biotinylated peptide and the detection reagents. Subsequently the amount of phosphorylated substrate was evaluated by measurement of the resonance energy transfer from the Eu-chelate to the streptavidine-XL. Therefore, the fluorescence emissions at 620 nm and 665 nm after excitation at 350 nm was measured in a TR-FRET reader, e.g. a Pherastar (BMG Labtechnologies, Offenburg, Germany) or a Viewlux (Perkin-Elmer). The ratio of the emissions at 665 nm and at […] was taken as the measure for the amount of phosphorylated substrate. The data were normalised (enzyme reaction without inhibitor=0% inhibition, all other assay components but no enzyme=100% inhibition).

[1] = system: BRCA1 mRNA expression in MDA-MB-231 cells; assay: qRT-PCR assay: inhibition of BRCA1 mRNA expression in MDA-MB-231 cells; format: cell-based, human; settings: Homo sapiens, MDA-MB-231, 24 h, 24 h exposure, BRCA1 mRNA normalised to GAPDH, median, read-out: RTqPCR-MDA-MB-231 IC50 [mol/l] BRCA1 (median)
Experimental: 3. qRT-PCR Assay: BRCA1, ATR, MCL1 in MDA-MB-231, CAL-120
Tissue cultured human MDA-MB-231 human breast cancer cells were plated in 500 microL per well at 200,000 cells/well in a 24 well microtiter plate. After 24 h, the cells were exposed continuously for 24 h to test substances (substances were added with Tecan HP D300 Dispenser). RNA was prepared using Qiagen RNeasy MiniKit (#74106), RNA was quantified using a NanoDrop Equipment, and 600 nano gamms of RNA was coverted to cDNA using a SuperScript VILO kit (Thermofisher #11755050) followed by qPCR amplification. BRCA1 and ATR gene expression was measured by RT-qPCR and normalised to GAPDH housekeeping gene expression. qPCR primer sets have been purchased from Thermo Fisher Scientific/Applied Biosystems: BRCA1, # Hs 01556193; ATR, #Hs 00992123; GAPDH, #Hs 03929097.

T1 sequence (P50750 whole entry): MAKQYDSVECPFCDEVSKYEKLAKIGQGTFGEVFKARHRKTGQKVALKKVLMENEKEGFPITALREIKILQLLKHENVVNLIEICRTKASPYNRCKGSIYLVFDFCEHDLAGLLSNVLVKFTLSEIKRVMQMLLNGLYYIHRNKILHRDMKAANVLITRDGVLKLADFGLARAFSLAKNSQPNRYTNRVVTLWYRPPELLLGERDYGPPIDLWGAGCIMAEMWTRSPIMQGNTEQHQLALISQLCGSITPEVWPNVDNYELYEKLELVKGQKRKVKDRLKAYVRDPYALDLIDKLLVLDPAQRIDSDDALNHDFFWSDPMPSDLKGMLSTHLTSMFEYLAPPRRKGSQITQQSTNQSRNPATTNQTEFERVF
T1 sequence (O60563 whole entry partner): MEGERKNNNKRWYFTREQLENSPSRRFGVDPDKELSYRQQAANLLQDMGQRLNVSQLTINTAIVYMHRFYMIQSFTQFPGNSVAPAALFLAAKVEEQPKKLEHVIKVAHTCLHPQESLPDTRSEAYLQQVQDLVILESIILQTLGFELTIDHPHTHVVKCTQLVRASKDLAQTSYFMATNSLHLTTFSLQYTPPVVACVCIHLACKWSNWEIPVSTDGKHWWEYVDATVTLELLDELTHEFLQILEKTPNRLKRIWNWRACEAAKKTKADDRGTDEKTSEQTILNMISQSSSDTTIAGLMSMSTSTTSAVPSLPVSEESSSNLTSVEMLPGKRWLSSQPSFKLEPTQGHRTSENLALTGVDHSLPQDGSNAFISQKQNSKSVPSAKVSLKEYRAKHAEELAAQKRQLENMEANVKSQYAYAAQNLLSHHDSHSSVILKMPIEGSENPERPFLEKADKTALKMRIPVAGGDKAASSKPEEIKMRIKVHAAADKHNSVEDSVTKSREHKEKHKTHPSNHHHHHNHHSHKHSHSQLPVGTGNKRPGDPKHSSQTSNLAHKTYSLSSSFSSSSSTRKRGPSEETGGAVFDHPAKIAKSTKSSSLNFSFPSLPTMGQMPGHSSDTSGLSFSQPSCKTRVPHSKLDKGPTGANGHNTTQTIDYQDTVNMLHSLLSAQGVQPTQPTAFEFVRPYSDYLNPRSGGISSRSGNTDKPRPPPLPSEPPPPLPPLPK

| Structure (SMILES) | IC50 (CDK9/CyclinT1) [µM] | IC50 [1] [nM] |
| --- | --- | --- |
| CN1CCC(n2nc(NCc3nc4cc(C(F)(F)F)ccc4[nH]3)c3ncc(C4CC4)nc32)CC1 [Example 25, 6-cyclopropyl-1-(1-methylpiperidin-4-yl)-N-{[5-(trifluoromethyl)-1H-benzimidazol-2-yl]methyl}-1H-pyrazolo[3,4-b]pyrazin-3-amine] | > 20 | 5.88 |
| c1ccc2[nH]c(CNc3nn(C4C[C@H]5CC[C@@H](C4)O5)c4nc(C5CC5)cnc34)nc2c1 (stereo partly drawn) [Example 45, exo/endo-N-[(1H-benzimidazol-2-yl)methyl]-6-cyclopropyl-1-(8-oxabicyclo[3.2.1]octan-3-yl)-1H-pyrazolo[3,4-b]pyrazin-3-amine] | > 20 | 7.6 |
| CC(C)(O)C1CC(n2nc(NCc3nc4ccccc4[nH]3)c3ncc(C4CC4)nc32)C1 (mixture of isomers) [Example 48, 2-[cis/trans-3-(3-{[(1H-benzimidazol-2-yl)methyl]amino}-6-cyclopropyl-1H-pyrazolo[3,4-b]pyrazin-1-yl)cyclobutyl]propan-2-ol] | > 20 | 39.5 |
| Cc1cccc2[nH]c(CNc3nn(C4CCOCC4)c4nc(C5CC5)cnc34)nc12 [Example 33, 6-cyclopropyl-N-[(4-methyl-1H-benzimidazol-2-yl)methyl]-1-(oxan-4-yl)-1H-pyrazolo[3,4-b]pyrazin-3-amine] | > 20 | 16.9 |
| CN1CCC(n2nc(NCc3nc4cc(Cl)ccc4[nH]3)c3ncc(C4CC4)nc32)CC1 [Example 22, N-[(5-chloro-1H-benzimidazol-2-yl)methyl]-6-cyclopropyl-1-(1-methylpiperidin-4-yl)-1H-pyrazolo[3,4-b]pyrazin-3-amine] | > 20 | 9.36 |
| O[C@H]1CC[C@H](n2nc(NCc3nc4ccccc4[nH]3)c3ncc(C4CC4)nc32)CC1 [Example 50, trans-4-(3-{[(1H-benzimidazol-2-yl)methyl]amino}-6-cyclopropyl-1H-pyrazolo[3,4-b]pyrazin-1-yl)cyclohexan-1-ol] | > 20 | 17.5 |
| O[C@H]1C[C@H](n2nc(NCc3nc4ccccc4[nH]3)c3ncc(C4CC4)nc32)C1 [Example 43, trans-3-(3-{[(1H-benzimidazol-2-yl)methyl]amino}-6-cyclopropyl-1H-pyrazolo[3,4-b]pyrazin-1-yl)cyclobutan-1-ol] | > 20 | 28.9 |
| CN1CCC(n2nc(NCc3nc4ccccc4[nH]3)c3ncc(C4CC4)nc32)C1 (racemic) [Example 35, (±)-N-[(1H-benzimidazol-2-yl)methyl]-6-cyclopropyl-1-(1-methylpyrrolidin-3-yl)-1H-pyrazolo[3,4-b]pyrazin-3-amine] | > 20 | 30.2 |
| Cc1c(Cl)ccc2[nH]c(CNc3nn(C4CCN(C)CC4)c4nc(C5CC5)cnc34)nc12 [Example 21, N-[(5-chloro-4-methyl-1H-benzimidazol-2-yl)methyl]-6-cyclopropyl-1-(1-methylpiperidin-4-yl)-1H-pyrazolo[3,4-b]pyrazin-3-amine] | > 20 | 26.1 |
| COc1cccc2[nH]c(CNc3nn(C4CCN(C)CC4)c4nc(C5CC5)cnc34)nc12 [Example 2, 6-cyclopropyl-N-[(4-methoxy-1H-benzimidazol-2-yl)methyl]-1-(1-methylpiperidin-4-yl)-1H-pyrazolo[3,4-b]pyrazin-3-amine] | > 20 | 8.55 |
| CC(C)(O)CCn1nc(NCc2nc3ccccc3[nH]2)c2ncc(C3CC3)nc21 [Example 76, 4-(3-{[(1H-benzimidazol-2-yl)methyl]amino}-6-cyclopropyl-1H-pyrazolo[3,4-b]pyrazin-1-yl)-2-methylbutan-2-ol] | > 20 | 7.4 |
| CN1CCC(n2nc(NCc3nc4c(Cl)c(F)ccc4[nH]3)c3ncc(C4CC4)nc32)CC1 [Example 31, N-[(4-chloro-5-fluoro-1H-benzimidazol-2-yl)methyl]-6-cyclopropyl-1-(1-methylpiperidin-4-yl)-1H-pyrazolo[3,4-b]pyrazin-3-amine] | > 20 | 4.99 |
| COC(C)(C)CCn1nc(NCc2nc3ccccc3[nH]2)c2ncc(C3CC3)nc21 [Example 67, N-[(1H-benzimidazol-2-yl)methyl]-6-cyclopropyl-1-(3-methoxy-3-methylbutyl)-1H-pyrazolo[3,4-b]pyrazin-3-amine] | > 20 | 78 |
| COc1cccc2[nH]c(CNc3nn(C4CCOCC4)c4nc(C5CC5)cnc34)nc12 [Example 24, 6-cyclopropyl-N-[(4-methoxy-1H-benzimidazol-2-yl)methyl]-1-(oxan-4-yl)-1H-pyrazolo[3,4-b]pyrazin-3-amine] | > 20 | 4.77 |
| CN1CCC(n2nc(NCc3nc4cc(Cl)c(Cl)cc4[nH]3)c3ncc(C4CC4)nc32)CC1 [Example 19, 6-cyclopropyl-N-[(5,6-dichloro-1H-benzimidazol-2-yl)methyl]-1-(1-methylpiperidin-4-yl)-1H-pyrazolo[3,4-b]pyrazin-3-amine] | > 20 | 8.59 |
| Cc1cccc2[nH]c(CNc3nn(C4CCN(C)CC4)c4nc(C5CC5)cnc34)nc12 [Example 8, 6-cyclopropyl-N-[(4-methyl-1H-benzimidazol-2-yl)methyl]-1-(1-methylpiperidin-4-yl)-1H-pyrazolo[3,4-b]pyrazin-3-amine] | > 20 |  |
| O[C@H]1CC[C@@H](n2nc(NCc3nc4ccccc4[nH]3)c3ncc(C4CC4)nc32)CC1 [Example 51, cis-4-(3-{[(1H-benzimidazol-2-yl)methyl]amino}-6-cyclopropyl-1H-pyrazolo[3,4-b]pyrazin-1-yl)cyclohexan-1-ol] | > 20 |  |
| c1ccc2[nH]c(CNc3nn(C4CCNCC4)c4nc(C5CC5)cnc34)nc2c1 [Example 12, N-[(1H-benzimidazol-2-yl)methyl]-6-cyclopropyl-1-(piperidin-4-yl)-1H-pyrazolo[3,4-b]pyrazin-3-amine] | > 20 |  |
| CN1CCC(n2nc(NCc3nc4c(F)c(F)ccc4[nH]3)c3ncc(C4CC4)nc32)CC1 [Example 9, 6-cyclopropyl-N-[(4,5-difluoro-1H-benzimidazol-2-yl)methyl]-1-(1-methylpiperidin-4-yl)-1H-pyrazolo[3,4-b]pyrazin-3-amine] | > 20 |  |
| c1ccc2[nH]c(CNc3nn(C4CCC4)c4nc(C5CC5)cnc34)nc2c1 [Example 49, N-[(1H-benzimidazol-2-yl)methyl]-1-cyclobutyl-6-cyclopropyl-1H-pyrazolo[3,4-b]pyrazin-3-amine] | > 20 |  |
| CN(C)CCn1nc(NCc2nc3ccccc3[nH]2)c2ncc(C3CC3)nc21 [Example 68, N-[(1H-benzimidazol-2-yl)methyl]-6-cyclopropyl-1-[2-(dimethylamino)ethyl]-1H-pyrazolo[3,4-b]pyrazin-3-amine] | > 20 |  |
| COCCC(C)n1nc(NCc2nc3ccccc3[nH]2)c2ncc(C3CC3)nc21 (racemic) [Example 57, (±)-N-[(1H-benzimidazol-2-yl)methyl]-6-cyclopropyl-1-(4-methoxybutan-2-yl)-1H-pyrazolo[3,4-b]pyrazin-3-amine] | > 20 |  |
